According to ChEMBL document CHEMBL1932967, “Synthesis and biological evaluation of novel derivatives of gambogic acid as anti-hepatocellular carcinoma agents” (Bioorg Med Chem Lett, 2012):
In brackets after ≈: the same amount, converted by molar mass. Activity calls are given as the source filed them. The calls are words filed in the database; no cut-off is given here.

What was measured:
[1] = Cytotoxicity against human Bel7404 cells after 72 hrs by MTT assay; type: functional, cell-based; conditions: BEL-7404, 72 h
[2] = system: HepG2; assay: cells; conditions: Homo sapiens, HepG2, 72 h
Description: Cytotoxicity against human HepG2 cells after 72 hrs by MTT assay

[3] = system: Bel-7402; assay: Cytotoxicity against human Bel7402 cells after 72 hrs by MTT assay; type: functional, cell-based; conditions: Bel-7402, 72 h
[4] = Cytotoxicity against human QGY7701 cells after 72 hrs by MTT assay; type: functional, cell-based; conditions: QGY7701, 72 h
[5] = system: SMMC-7721; assay: Cytotoxicity against human SMMC7721 cells after 72 hrs by MTT assay; type: functional, cell-based; conditions: SMMC-7721, 72 h
[6] = Aqueous solubility of the compound; type: physicochemical; conditions: water (aqueous)
[7] = system: Bel-7402; assay: Ratio of Gambogic acid IC50 to compound IC50 for human Bel7402 cells; type: functional
[8] = system: Bel-7402; assay: Ratio of Taxol IC50 to compound IC50 for human Bel7402 cells; type: functional
[9] = system: Bel-7402; assay: Induction of apoptosis in human Bel7402 cells assessed as pre-necrotic cells at 0.4 uM after 48 hrs using V-FITC and propidium iodide staining by flow cytometry (reference value: 0.7 %); type: functional
[10] = system: Bel-7402; assay: Induction of apoptosis in human Bel7402 cells assessed as viable cells at 0.1 uM after 48 hrs using V-FITC and propidium iodide staining by flow cytometry (reference value: 95.7 %); type: functional; conditions: Bel-7402, 48 h, read-out: Activity
[11] = system: Bel-7402; assay: Induction of apoptosis in human Bel7402 cells assessed as late apoptotic cells at 0.025 uM after 48 hrs using V-FITC and propidium iodide staining by flow cytometry (reference value: 2.2 %); type: functional
[12] = system: Bel-7402; assay: Induction of apoptosis in human Bel7402 cells assessed as late apoptotic cells at 0.1 uM after 48 hrs using V-FITC and propidium iodide staining by flow cytometry (reference value: 2.2 %); type: functional
[13] = system: Bel-7402; assay: Induction of apoptosis in human Bel7402 cells assessed as viable cells at 0.4 uM after 48 hrs using V-FITC and propidium iodide staining by flow cytometry (reference value: 95.7 %); type: functional; conditions: Bel-7402, 48 h, read-out: Activity
[14] = system: Bel-7402; assay: Induction of apoptosis in human Bel7402 cells assessed as early apoptotic cells at 0.025 uM after 48 hrs using V-FITC and propidium iodide staining by flow cytometry (reference value: 1.4 %); type: functional
[15] = system: Bel-7402; assay: Induction of apoptosis in human Bel7402 cells assessed as pre-necrotic cells at 0.025 uM after 48 hrs using V-FITC and propidium iodide staining by flow cytometry (reference value: 0.7 %); type: functional
[16] = system: Bel-7402; assay: Cytotoxicity against human Bel7402 cells at 1.235 uM after 72 hrs by MTT assay; type: functional, cell-based
[17] = Cytotoxicity against human HL-7702 cells at 1.235 uM after 72 hrs by MTT assay; type: cell-based; conditions: l02, 72 h
[18] = system: Bel-7402; assay: Induction of apoptosis in human Bel7402 cells assessed as early apoptotic cells at 0.1 uM after 48 hrs using V-FITC and propidium iodide staining by flow cytometry (reference value: 1.4 %); type: functional
[19] = system: Bel-7402; assay: Induction of apoptosis in human Bel7402 cells after 48 hrs using V-FITC and propidium iodide staining by flow cytometry; type: functional, cell-based
[20] = system: Bel-7402; assay: Induction of apoptosis in human Bel7402 cells assessed as pre-necrotic cells at 0.1 uM after 48 hrs using V-FITC and propidium iodide staining by flow cytometry (reference value: 0.7 %); type: functional
[21] = system: Bel-7402; assay: Induction of apoptosis in human Bel7402 cells assessed as early apoptotic cells at 0.4 uM after 48 hrs using V-FITC and propidium iodide staining by flow cytometry (reference value: 1.4 %); type: functional
[22] = system: Bel-7402; assay: Induction of apoptosis in human Bel7402 cells assessed as viable cells at 0.025 uM after 48 hrs using V-FITC and propidium iodide staining by flow cytometry (reference value: 95.7 %); type: functional; conditions: Bel-7402, 48 h, read-out: Activity
[23] = system: Bel-7402; assay: Induction of apoptosis in human Bel7402 cells assessed as late apoptotic cells at 0.4 uM after 48 hrs using V-FITC and propidium iodide staining by flow cytometry (reference value: 2.2 %); type: functional

SMILES | IC50 [1] | IC50 [2] | IC50 [3] | IC50 [4] | IC50 [5] | solubility [6] | further results
CC(=O)O[C@H]1C(=O)[C@@]2(C)[C@H]([C@H](OC(=O)c3ccccc3)[C@]3(O)C[C@H](OC(=O)[C@H](O)[C@@H](NC(=O)c4ccccc4)c4ccccc4)C(C)=C1C3(C)C)[C@]1(OC(C)=O)CO[C@@H]1C[C@@H]2O [PACLITAXEL] | 820 nM | 50 nM | 1250 nM | 40 nM | 880 nM |  | 
CC(C)=CCC[C@]1(C)C=Cc2c(O)c3c(c(CC=C(C)C)c2O1)O[C@]12C(=C[C@@H]4C[C@H]1C(C)(C)O[C@@]2(C/C=C(/C)C(=O)OCCN1CCNCC1)C4=O)C3=O | 31100 nM | 20100 nM | 19700 nM | 5430 nM | 28400 nM | 1360 µg/mL (≈ 1840 µM) | 
CC(C)=CCC[C@]1(C)C=Cc2c(O)c3c(c(CC=C(C)C)c2O1)O[C@]12C(=C[C@@H]4C[C@H]1C(C)(C)O[C@@]2(C/C=C(/C)C(=O)OCCCCN1CCN(CCO)CC1)C4=O)C3=O | 9650 nM | 1160 nM | 1100 nM | 2560 nM | 3520 nM | 1210 µg/mL (≈ 1490 µM) | 
CC(C)=CCC[C@]1(C)C=Cc2c(O)c3c(c(CC=C(C)C)c2O1)O[C@]12C(=C[C@@H]4C[C@H]1C(C)(C)O[C@@]2(C/C=C(/C)C(=O)OCCCN1CCNCC1)C4=O)C3=O | 27600 nM | 19100 nM | 18100 nM | 4380 nM | 26200 nM | 1350 µg/mL (≈ 1790 µM) | 
CC(C)=CCC[C@]1(C)C=Cc2c(O)c3c(c(CC=C(C)C)c2O1)O[C@]12C(=C[C@@H]4C[C@H]1C(C)(C)O[C@@]2(C/C=C(/C)C(=O)OCCCN1CCCCC1)C4=O)C3=O | 1420 nM | 150 nM | 86 nM | 430 nM | 1060 nM | 840 µg/mL (≈ 1110 µM) | Ratio IC50 [7]: 8.7; Ratio IC50 [8]: 14.5
CC(C)=CCC[C@]1(C)C=Cc2c(O)c3c(c(CC=C(C)C)c2O1)O[C@]12C(=C[C@@H]4C[C@H]1C(C)(C)O[C@@]2(C/C=C(/C)C(=O)OCCCCN1CCCCC1)C4=O)C3=O | 6460 nM | 5590 nM | 3140 nM | 4360 nM | 4530 nM | 780 µg/mL (≈ 1020 µM) | 
CC(C)=CCC[C@]1(C)C=Cc2c(O)c3c(c(CC=C(C)C)c2O1)O[C@]12C(=C[C@@H]4C[C@H]1C(C)(C)O[C@@]2(C/C=C(/C)C(=O)OCCN1CCCCC1)C4=O)C3=O | 7230 nM | 3180 nM | 1720 nM | 700 nM | 6520 nM | 870 µg/mL (≈ 1180 µM) | 
CC(C)=CCC[C@]1(C)C=Cc2c(O)c3c(c(CC=C(C)C)c2O1)O[C@]12C(=C[C@@H]4C[C@H]1C(C)(C)O[C@@]2(C/C=C(/C)C(=O)OCCN1CCOCC1)C4=O)C3=O | 1990 nM | 940 nM | 590 nM | 410 nM | 1590 nM | 1230 µg/mL (≈ 1660 µM) | 
CC(C)=CCC[C@]1(C)C=Cc2c(O)c3c(c(CC=C(C)C)c2O1)O[C@]12C(=C[C@@H]4C[C@H]1C(C)(C)O[C@@]2(C/C=C(/C)C(=O)O)C4=O)C3=O [GAMBOGIC ACID] | 4700 nM | 1170 nM | 750 nM | 240 nM | 1130 nM | 13 µg/mL (≈ 20.7 µM) | 
CC(C)=CCC[C@]1(C)C=Cc2c(O)c3c(c(CC=C(C)C)c2O1)O[C@]12C(=C[C@@H]4C[C@H]1C(C)(C)O[C@@]2(C/C=C(/C)C(=O)OCCCN1CCOCC1)C4=O)C3=O | 1250 nM | 67 nM | 45 nM | 120 nM | 730 nM | 1210 µg/mL (≈ 1600 µM) | Activity [9]: 0.5%; viability at 0.1 µM [10]: 72.2%; Activity [11]: 7.8%; Activity [12]: 4.6%; viability at 0.4 µM [13]: 49.6%; Activity [14]: 3%; Activity [15]: 1.4%; Activity [16]: Active; Activity [17]: Toxic; Ratio IC50 [7]: 16.7; Activity [18]: 22.8%; Activity [19]: Dose-dependent effect; Activity [20]: 0.4%; Activity [21]: 44.9%; viability at 0.025 µM [22]: 87.8%; Activity [23]: 5%; Ratio IC50 [8]: 27.8
CC(C)=CCC[C@]1(C)C=Cc2c(O)c3c(c(CC=C(C)C)c2O1)O[C@]12C(=C[C@@H]4C[C@H]1C(C)(C)O[C@@]2(C/C=C(/C)C(=O)OCCCCN1CCNCC1)C4=O)C3=O | 28600 nM | 24100 nM | 16700 nM | 4120 nM | 23500 nM | 1320 µg/mL (≈ 1720 µM) | 
CC(C)=CCC[C@]1(C)C=Cc2c(O)c3c(c(CC=C(C)C)c2O1)O[C@]12C(=C[C@@H]4C[C@H]1C(C)(C)O[C@@]2(C/C=C(/C)C(=O)OCCCCN1CCOCC1)C4=O)C3=O | 2110 nM | 1510 nM | 2130 nM | 530 nM | 1540 nM | 1170 µg/mL (≈ 1520 µM) | 
CC(C)=CCC[C@]1(C)C=Cc2c(O)c3c(c(CC=C(C)C)c2O1)O[C@]12C(=C[C@@H]4C[C@H]1C(C)(C)O[C@@]2(C/C=C(/C)C(=O)OCCN1CCN(CCO)CC1)C4=O)C3=O | 10200 nM | 9900 nM | 3360 nM | 1860 nM | 8570 nM | 1260 µg/mL (≈ 1610 µM) | 
CC(C)=CCC[C@]1(C)C=Cc2c(O)c3c(c(CC=C(C)C)c2O1)O[C@]12C(=C[C@@H]4C[C@H]1C(C)(C)O[C@@]2(C/C=C(/C)C(=O)OCCCN1CCN(CCO)CC1)C4=O)C3=O | 8080 nM | 3250 nM | 3120 nM | 960 nM | 6610 nM | 1230 µg/mL (≈ 1540 µM) | 
